Data on five compounds can be found in US10626148B2, “Glycopeptides conjugates and uses thereof” (priority 2015, dated 2020).

Assay [1] relates to Staphylococci (MRSA and VISA) and Enterococci (VREm and VREs). Nature of the assay: Antibacterial activity, gram positive panel. Type of assay: cell-based. Conditions: VSEm. Here is the method: (§1) Test compounds were assayed in a micro-dilution broth format. Stock solutions were made by serially diluting the compounds using autoclaved millipore water or broth media. The antibacterial activity of the compounds was determined against gram positive bactreia like methicillin-resistant S. aureus (MRSA), vancomycin-intermediate-resistant S. aureus (VISA), vancomycin-sensitive E. faecium (VSE), vancomycin-resistant E. faecalis and vancomycin-resistant E. faecium (VRE). Antibacterial activity of dipicolyl-vancomycin conjugate conjugate (4) in combination with meropemem was determined against gram-negative bacteria such as K. pneumoniae ATCC BAA2146, clinical isolates K. pneumoniae R3949, K. pneumoniae R3934, E. coli R3336 and A. baumanii R676. […] This 6 h grown culture gives about 10^9 cfu/mL and this was determined by spread plating method. […] The plates were then incubated at about 37° C., 150 rpm in the incubator and O.D at 620 nm was recorded at an interval of about 24 h using TECAN (Infinite series, M200 pro) Plate Reader. Each concentration had triplicate values and the whole experiment was done at least twice and the MIC value was determined by taking the average of triplicate O.D. values for each concentration and plotting it against concentration. […]

Assay [2] has as its system Vancomycin intermediate resistant S. aureus. Put plainly: MIC, micro-dilution broth, VISA. Type of assay: cell-based. Here is the method:
(§2) Test compounds were assayed in a micro-dilution broth format. Stock solutions were made by serially diluting the compounds using autoclaved millipore water or broth media. The antibacterial activity of the compounds was determined against gram positive bactreia like methicillin-resistant S. aureus (MRSA), vancomycin-intermediate-resistant S. aureus (VISA), vancomycin-sensitive E. faecium (VSE), vancomycin-resistant E. faecalis and vancomycin-resistant E. faecium (VRE). Antibacterial activity of dipicolyl-vancomycin conjugate conjugate (4) in combination with meropemem was determined against gram-negative bacteria such as K. pneumoniae ATCC BAA2146, clinical isolates K. pneumoniae R3949, K. pneumoniae R3934, E. coli R3336 and A. baumanii R676. Bacteria, to be tested, were grown for about 10 h in the suitable media, MRSA, VISA and gram negative bacteria were grown in Yeast-dextrose broth (about 1 g of beef extract, about 2 g of yeast extract, about 5 g of peptone and about 5 g of NaCl in about 1000 mL of sterile distilled water (pH-7)). For solid media, about 5% agar was used along with above mentioned composition. VSE and VRE were cultured in Brain Heart Infusion broth (Himedia). The bacterial samples were freeze dried and stored at −80° C. About 5 μL of these stocks were added to about 3 mL of the nutrient broth or Brain Heart Infusion broth and the culture was grown for about 6 h at about 37° C. prior to the experiments. This 6 h grown culture gives about 10^9 cfu/mL and this was determined by spread plating method. The 6 h grown culture was diluted to give effective cell concentration of about 10^5 cfu/mL which was then used for determining MIC. Compounds were serially diluted, in sterile water (2-fold dilution is employed) in a way that the working concentration was about 10 μM for MRSA, and VSE while for VRE, VISA and gram negative bacteria; it was about 100 μM. About 50 μL of these serial dilutions were added to the wells of 96 well plate followed by the addition of about 150 μL of bacterial solution. The plates were then incubated at about 37° C., 150 rpm in the incubator and O.D at 620 nm was recorded at an interval of about 24 h using TECAN (Infinite series, M200 pro) Plate Reader. Each concentration had triplicate values and the whole experiment was done at least twice and the MIC value was determined by taking the average of triplicate O.D. values for each concentration and plotting it against concentration. The data was then subjected to sigmoidal fitting.
(In general: Broth dilution looks for growth in wells or tubes with falling amounts of substance.)

For assay [3], the system named is meropenem-resistant NDM-1 bacteria. Put plainly: Combination with meropenem against NDM-1 gram negative bacteria. Type of assay: cell-based. Conditions: in combination with meropenem. How it is done:
as §1, with “R676. Bacteria, to be tested, were grown for about 10 h in the suitable media, MRSA, VISA and gram negative bacteria were grown in Yeast-dextrose broth (about 1 g of beef extract, about 2 g of yeast extract, about 5 g of peptone and about 5 g of NaCl in about 1000 mL of sterile distilled water (pH-7)).” for “R676.”
(§3) Then, the antibacterial activities of Dipicolyl-vancomycin conjugate (4) is checked in combination with meropenem against New-Delhi β-lactamase producing gram negative bacteria such as K. pneumoniae BAA2146, clinical isolates K. pneumoniae R3949, K. pneumoniae R3934, E. coli R3336 and A. baumanii R676. […] Further we have also evaluated the antibacterial activity of dipicolyl-vancomycin conjugate (4) in presence of zinc sulphate, wherein it forms dipicolyl-vancomycin-zinc complex (5).

Assay [4] concerns Vancomycin-resistant E. faecium (VanA, ATCC 51559). Nature of the assay: MIC, micro-dilution broth, VREm. Type of assay: cell-based. Here is the method:
as §2

Assay [5] concerns Vancomycin-sensitive E. faecium (ATCC 19634). Put plainly: MIC, micro-dilution broth, VSEm. Type of assay: cell-based. How it is done: as §2
For assay [6], the system named is Methicillin-resistant S. aureus (ATCC 33591). Nature of the assay: MIC, micro-dilution broth, MRSA. Type of assay: cell-based. Here is the method: as §2
In assay [7] the test system is Vancomycin-resistant E. faecalis (VanA, ATCC 51575). Nature of the assay: MIC, micro-dilution broth, VREs. Type of assay: cell-based. Here is the method: as §2
For assay [8], the system named is NDM-1 expressing Klebsiella pneumoniae R3934. Nature of the assay: microbe, parasite or virus in culture. Conditions: for MIC: Klebsiella pneumoniae. Type of assay: cell-based. Here is the method: as §2, §3
Assay [9] deals with NDM-1 expressing Klebsiella pneumoniae ATCC BAA2146. Put plainly: microbe, parasite or virus in culture. Conditions: for MIC: Klebsiella pneumoniae. Type of assay: cell-based. How it is done:
as §2, §3

Assay [10] relates to NDM-1 expressing Klebsiella pneumoniae R3949. Nature of the assay: microbe, parasite or virus in culture. Type of assay: cell-based. Conditions: for MIC: Klebsiella pneumoniae. Here is the method: as §2, §3
Assay [11] relates to NDM-1 expressing Escherichia coli R3336. Nature of the assay: microbe, parasite or virus in culture. Type of assay: cell-based. Conditions: for MIC: Escherichia coli. How it is done: as §2, §3
In assay [12] the test system is meropenem-resistant NDM-1 K. pneumoniae R3934. Nature of the assay: Sepsis infection model in mice. Type of assay: in vivo. Conditions: CD-1 mice, i.p., 10 mg/kg alone, 1 h and 24 h post-infection. How it is done: Sepsis infection model: About six-week-old, female CD-1 mice (weight, ˜19-24 g) were used for the experiments. Mice were infected intraperitoneally (i.p.) with a dose of ˜10^6 CFU/mouse of meropenem-resistant NDM-1 K. pneumoniae R3934. Then, mice were treated twice at 1 h and 24 h post-infection with a specified i.p. dose of either saline, meropenem (10 mg/kg), compound 4 (10 mg/kg), or a combination of compound 4 (10 mg/kg) and meropenem (10 mg/kg). Here, colistin (5 mg/kg) was used as a positive control. Mice were euthanized after 48 h post-infection and then liver, spleen, kidney and lungs were collected to find out the bacterial density in these organs. Organs were placed into 10 ml sterile saline on ice, and then homogenized. The dilutions of the homogenate were plated onto agar plates, which were incubated for 24 h at 37° C. The bacterial titer was expressed as log10 CFU/g of organ weight.

Assay [13] addresses T1, NDM-1 enzyme (Klebsiella pneumoniae, UniProt C7C422).
T1 construct: made in house; host or cells: E. coli BL21 (DE3)
Put plainly: NDM-1 enzyme inhibition, nitrocefin substrate. Type of assay: biochemical. Conditions: nitrocefin as substrate. How it is done: The NDM-1 was produced by E. coli BL21 (DE3) carrying pET30a-NDM-1 in LB medium. Initially, the purified NDM-1 enzyme (5 nM, HEPES buffer, pH-7.4) was supplemented with 20 μM ZnSO4 for 30 min. Next, the enzyme was pre-incubated with the inhibitor (compound 4) for 20 min prior to the initiation of the assay by the addition of the substrate (Nitrocefin, 30 μM). Assays were read in 96-well microplate format at 490 nm (absorbance) using TECAN plate reader (Infinite Pro.) at 37° C. IC50s were deduced from a plot of percent loss of activity versus inhibitor concentration.

For assay [14], the system named is MRSA. Put plainly: Resistance development study, serial passages. Conditions: passaged at MIC/2. Type of assay: cell-based, S. aureus. How it is done: MIC values of the compound 4 and vancomycin were determined against MRSA as described above. For the next day MIC experiment, the bacterial dilution was made by using the bacteria from sub-MIC concentration of the compounds (at MIC/2). Then, the concentration of this bacteria was adjusted to ˜10^5 CFU/mL based on OD600 and subjected to next MIC assay. After a 24 h incubation period, again bacterial dilution was prepared by using the bacterial suspension from sub-MIC concentration of the compound (at MIC/2) and assayed for another MIC experiment. The process was repeated for 25 passages, and the fold increase in MIC was determined. […] Thus bacteria were unable in acquiring resistance to this compound and this emphasizes the longevity of such compounds in clinics.

Assay [15] relates to VREs ATCC 51575. Type of assay: in vivo, E. faecalis. Conditions: CD-1 mice, 12 mg/kg i.p. once daily, three doses. Here is the method:
Female CD-1 mice 6 to 8 weeks of age and weighing 20 to 25 g were used in this study. On day −7, all mice were injected intravenously (i.v.) with 0.2 mL of 0.2% λ-carrageenan to increase their susceptibility to bacterial renal infection. λ-Carrageenan increases mice susceptibility to renal infection following i.v. injection, possibly by forming a lattice structure in renal tissue and forming a support structure for bacterial attachment and growth. Bacterial strains that fail to cause renal infection in normal mice produce significant renal infections in λ-carrageenan-treated mice. On day 0, all mice were injected i.v. with 0.2 mL of the bacterial culture (VREs ATCC 51575, 10^8 CFU/mouse) through the tail vein. Four hours after the bacterial inoculation, mice were treated intraperitoneally (i.p.) with vancomycin, compound 4 and linezolid at 12 mg/kg of body weight or 0.2 mL of saline (0.9% NaCl) control (n=5). All the test compounds or saline were administered once daily for an additional two consecutive days for a total of three doses. All mice were sacrificed on day 3. Both kidneys from each mouse were removed aseptically and homogenized in 10 mL of saline. The dilutions of the homogenate were plated onto sheep blood agar plates, which were incubated overnight at about 37° C. The bacterial titer was expressed as log10 CFU/g of kidney weight.

The mark [16] stands for this setting: read-out: MIC of Meropenem in absence of compound 4.
The mark [17] stands for this setting: read-out: MIC of Meropenem in absence of compound 5.

Where two headings read alike, the source gives them in different places.

T1 sequence (C7C422 29-270, looked up, species assumed): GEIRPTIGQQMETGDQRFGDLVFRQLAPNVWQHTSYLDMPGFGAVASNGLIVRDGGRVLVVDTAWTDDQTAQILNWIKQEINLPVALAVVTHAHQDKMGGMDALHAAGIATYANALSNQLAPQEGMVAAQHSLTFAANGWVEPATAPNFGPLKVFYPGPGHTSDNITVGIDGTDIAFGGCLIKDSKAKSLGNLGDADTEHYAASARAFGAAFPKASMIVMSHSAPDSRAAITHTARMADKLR

As to `NCCCCCCN(Cc1ccccn1)Cc1ccccn1` [Compound 3, dipicolyl-1,6-hexadiamine], the “antibacterial activity against any of the bacteria tested” value in assay [1] is given as “did not show any activity”. The MIC in assay [2], in assay [4] (VREm), in [5] (VSEm), in assay [6] (MRSA) and in assay [7] (VREs) was greater than 100 µM in each case. Besides, in assay [3], the “resensitization of meropenem-resistant NDM-1 bacteria to meropenem (synergistic activity)” value is “did not show any appreciable synergistic activity”.

As for “Dipicolyl-Vancomycin-Zinc Complex [Compound 5]”, the “MIC of Meropenem in presence of compound 5 at 12 μM” value in assay [8] (Klebsiella pneumoniae R3934), in assay [9] (Klebsiella pneumoniae ATCC BAA2146), in assay [10] (Klebsiella pneumoniae R3949) and in assay [11] (Escherichia coli R3336) was greater than 100 µg/mL in each case. Besides, the MIC in assay [2] worked out at 0.3 µM; in [4] (VREm) it was 0.6 µM; in assay [5] (VSEm), 0.31 µM; in [6] (MRSA), 0.3 µM; in [7] (VREs), 1.5 µM. Also, the “resensitization of meropenem-resistant NDM-1 bacteria to meropenem (synergistic activity)” value in assay [3] is on record as “did not restore the activity of meropenem”. In addition, the “fold more active than vancomycin” value in assay [4] (VREm (VRE), ratio of MIC values) is given as “about 1250 fold”.

Turning to `C[C@@H](O)[C@H]1C(=O)N2C(C(=O)O)=C(S[C@@H]3CN[C@H](C(=O)N(C)C)C3)[C@H](C)[C@H]12` [Meropenem, meropenem, reference compound], the MIC in assay [8] (setting [16]) was greater than 100 µg/mL; in [8] (setting [17]), greater than 100 µg/mL; in [9] (ATCCBAA2146, read-out: MIC of Meropenem in absence of compound 4), greater than 100 µg/mL; in [9] (ATCCBAA2146, read-out: MIC of Meropenem in absence of compound 5), greater than 100 µg/mL; in assay [10] (setting [16]), greater than 100 µg/mL; in [10] (setting [17]), greater than 100 µg/mL. The MIC in [11] (setting [16]) and in assay [11] (setting [17]) was greater than 100 µg/mL in each case. Also, the “in-vivo antibacterial activity, bacterial titer in organs” value in assay [12] is reported as “did not show any activity”.

Regarding `CN[C@H](CC(C)C)C(=O)N[C@H]1C(=O)N[C@@H](CC(N)=O)C(=O)N[C@H]2C(=O)N[C@H]3C(=O)N[C@H](C(=O)N[C@H](C(=O)O)c4cc(O)cc(O)c4-c4cc3ccc4O)[C@H](O)c3ccc(c(Cl)c3)Oc3cc2cc(c3O[C@H]2OC(CO)[C@H](O)C(O)C2O[C@H]2C[C@@](C)(N)[C@@H](O)C(C)O2)Oc2ccc(cc2Cl)[C@H]1O` (stereo partly shown) [Vancomycin, reference compound], the MIC in assay [2] (Staphylococcus aureus) is 13 µM; in assay [4] (Enterococcus faecium, ATCC51559), 750 µM; in [5] (Enterococcus faecium, ATCC19634), 0.6 µM; in assay [6] (Staphylococcus aureus), 0.63 µM; in assay [7] (Enterococcus faecalis, ATCC51575), 250 µM. The “effect on the activity of NDM-1” value in assay [13] is “no effect”. Also, the “fold increase in MIC after 25 serial passages” value in [14] is roughly 16 fold. In [14], the “passages after which the MIC value started increasing” value was 7 passages.

Regarding `CC(=O)NC[C@H]1CN(c2ccc(N3CCOCC3)c(F)c2)C(=O)O1` [Linezolid, linezolid, reference compound], in [15], the “reduction of bacterial titer from infected kidneys in comparison to vancomycin” value is given as “reduced bacterial titer from the infected kidneys more effectively”. Besides, the “CFU reduction compared to vehicle treated control (saline)” value in assay [15] (kidneys) is reported as roughly 4 log10 CFU.
